Data published in article PMC11357992, “Non-invasive mapping of systemic neutrophil dynamics upon cardiovascular injury” (Nature Cardiovascular Research, 2023).
“And” between values parts separate entries of the source, which are not always exact repeats. Identical values can stand only once. Where no end group is shown, it is not given here. Side-chain parts run from the residue outwards. rhodamine‑labelled PEGylated perfluoro‑15‑crown‑5 ether nanoemulsion = not defined here; carboxyfluorescein = N-terminal fluorescence label (CF)

How the values were obtained:
[1] = tested on: murine blood leukocytes; assay: Ex vivo uptake of mNPPFCs/ConPFCs by murine immune cells, flow cytometry; format: cell-based, mouse; parameters: Basal mNPPFC Uptake, flow cytometry / Stimulated mNPPFC Uptake, flow cytometry: unit not given here; details: for Stimulated mNPPFC Uptake, flow cytometry: LPS-stimulated conditions; for Stimulated mNPPFC Uptake, flow cytometry / Basal mNPPFC Uptake, flow cytometry: individual experiments; for Basal mNPPFC Uptake, flow cytometry: basal conditions
Experimental: Erythrocytes were lysed by adding a fourfold volume of NH4Cl buffer (pH 7.4). After 10 min of incubation, samples were centrifuged at 350g for 10 min at 20 °C. For isolation of neutrophils from the bone marrow, mice were killed by cervical dislocation, and bones were dissected. Afterward, cells were isolated from the bone marrow using established protocols.
Flow cytometry was performed with a FACSCanto II (BD Biosciences) or LSRFortessa (BD Biosciences). Cells were gated with appropriate FSC–SSC settings and thresholds for excluding debris. To omit dead cells, samples were stained with 1 µg ml^−1 DAPI (Merck). For analysis, cells were gated with FACSDiva 6 or FlowJo 7.1, and MFI and/or the number of positive cells was determined, depending on the experiment.
Human immune cells were discriminated by staining for CD45 (BioLegend, clone HI30), CD11b (BD Biosciences, clone ICRF44), CD14 (BioLegend, clone M5E2) and CD16 (BD Biosciences, clone 3G8) (lymphocytes, CD45^+CD11b^−CD16^−; classical monocytes, CD45^+CD11b^+CD14^++CD16^−; non-classical monocytes, CD45^+CD11b^+CD14^+CD16^++; neutrophils, CD45^+CD11b^+CD16^+). Murine immune cells were discriminated by staining for CD45 (BD Biosciences, clone 30-F11), CD11b (BioLegend, clone M1/70), Ly6G (BD Biosciences, clone 1A8), Ly6C (BioLegend, clone HK1.4) and F4/80 (BioLegend, clone BM8) (lymphocytes, CD45^+CD11b^−Ly6G^−; classical monocytes, CD45^+CD11b^+Ly6G^−Ly6C^hi; non-classical monocytes, CD45^+CD11b^+Ly6G^−Ly6C^lo; neutrophils, CD45^+CD11b^+Ly6G^+; eosinophils, CD45^+CD11b^+Ly6G^+SSC^hiFSC^lo). Both human and murine cells were stained for 20 min at 4 °C, followed by washing with 200 µl MACS buffer.
If not mentioned otherwise, neutrophil-specific peptide or Con (both at 1 µg ml^−1) were incubated for 20 min at 4 °C, while ^NPPFCs or ^ConPFCs were incubated at a concentration of 10 µl ml^−1 for the indicated period of time, followed by two washing steps with 200 µl MACS buffer.
A total of 1 × 10^6 cells were incubated with 10 µl of the emulsion over a period of 80 min at 37 °C. At distinct time points, 50 µl of the samples were transferred into 2 ml of ice-cold MACS buffer and analyzed for rhodamine fluorescence by flow cytometry.
Extended Data Fig. 2 Specific targeting of neutrophils by ^mNPPFCs. a, Flow cytometric analysis of murine blood leukocytes incubated with ^mNPPFCs over 80 min illustrating their predominant uptake by neutrophils (red) as compared to monocytes (blue) and lymphocytes (gray). b, To further validate specificity, binding of CD177 mAb as well as incorporation of ^mNPPFCs under basal and LPS-stimulated conditions were determined. Almost no binding/uptake into classical or non-classical monocytes as well as macrophages or eosinophils could be detected. […] Subsequently, cells were analyzed by ^1H/^19F MRI. Left: ^1H/^19F MRI of centrifugation tubes with neutrophils treated with ^mNPPFCs (lower panel) or ^ConPFCs (upper panel). The small neutrophil cell pellet is located at the bottom of the tube and can be identified by ^1H MRI (1st column) as slightly darker structure (arrows) compared to the bright phosphate buffer; corresponding ^19F MR images (2nd column) and superimposition of ^1H/^19F datasets (3rd column, with ^19F data color-coded in hot iron). Quantification of ^19F signals (4th column) clearly indicate substantial stronger ^19F uptake in ^mNPPFC-treated neutrophils (red) compared to cells incubated with ^ConPFCs (gray); a.u. = arbitrary units. Data are means ± SD of n = 4 (a), n = 6 (b), n = 6 (c) or n = 3-5 (d) independent experiments; * = […], ** = p < 0.01, *** = p < 0.001, verified by two-way ANOVA (a), one-way ANOVA (b) or two-sided students t-test (c, d). Source data

[2] = Liver serum markers after PFC injection; format: in vivo, mouse; details: i.v. over 3 consecutive days, 24 h after last injection
Experimental: ^ConPFCs, ^mNPPFCs (each at 1 mM per kg BW) or saline were injected i.v. over 3 consecutive days. Twenty-four hours after the last injection, mice were killed, and blood samples were withdrawn to determine GLDH, AST, ALP, ALT and bilirubin levels by standard clinical procedures. Furthermore, the liver and spleen were dissected, fixed in formalin and snap frozen. Subsequently, 4-µm cryosections were cut and stained with hematoxylin and eosin as described previously.
Extended Data Fig. 3 Assessment of ^mNPPFC/^ConPFC biodistribution, liver serum markers and histology of liver and spleen. a, Biodistribution of intravenously injected ^mNPPFCs was determined via ^19F MRI measurements at distinct time points after injection (1, 3, 6 and 24 h after injection). Shown are quantification of fluorine signal intensities in the blood, liver and spleen indicating a fast wash-out from the blood accompanied by a strong influx into the liver while signal intensities in the spleen were constant over the entire observation period; a.u. = arbitrary units. b, Serum levels of GLDH (glutamate dehydrogenase), AST (aspartate aminotransferase), ALP (alkaline phosphatase), ALT (alanine aminotransferase) and bilirubin after intravenous application of NaCl as control, ^ConPFCs or ^mNPPFCs. c + d, 4 µm sections of liver (C) and spleen (D) stained with hematoxylin and eosin. Organs were excised and processed for histology 24 h post injection of NaCl (upper row), ^ConPFCs (middle), ^mNPPFCs (lower). Representative liver/spleen images of organs from three different animals are shown. Scale bars indicate 100 µm. Data are mean values ± SD of n = 6 (a), n = 4-6 (b) and n = 6 (c + d) independent experiments. Source data

[3] = ex vivo, murine blood, flow cytometry, panel A raw data, replicates #1-#3

mNPPFCs: PEGylated rhodamine-labeled perfluoro-15-crown-5 ether nanoemulsion (maleimide PFCs) coupled with murine neutrophil-specific peptide mNP (carboxyfluorescein-DFYKPMPNLRITGGGC([maleimide‑PEG2000‑DSPE-rhodamine‑labelled PEGylated perfluoro‑15‑crown‑5 ether nanoemulsion]); reading uncertain; also: printed as DFYKPMPNLRIT-GGG-C)
Stimulated mNPPFC Uptake, flow cytometry ([1]; classical monocytes): 968 and 1199 and 1888 and 792 and 1168 and 1582 | Basal mNPPFC Uptake, flow cytometry ([1]; classical monocytes): 1007 and 804 and 1494 and 1027 and 800 and 1292 | Stimulated mNPPFC Uptake, flow cytometry ([1]; eosinophils): 391 and 367 and 596 and 415 and 376 and 503 | Basal mNPPFC Uptake, flow cytometry ([1]; eosinophils): 880 and 341 and 789 and 755 and 384 and 656 | uptake of PFCs, lymphocytes [1, 3]: 97.9 and 103 and 102 | uptake of PFCs, monocytes [1, 3]: 212 and 348 and 265 | uptake of PFCs, neutrophils [1, 3]: 2972 and 1641 and 1658 | Stimulated mNPPFC Uptake, flow cytometry ([1]; macrophages): 1176 and 1188 and 969 and 1223 and 1090 and 1085 | Basal mNPPFC Uptake, flow cytometry ([1]; macrophages): 945 and 874 and 865 and 808 and 877 and 873 | Stimulated mNPPFC Uptake, flow cytometry ([1]; neutrophils): 17100 and 16383 and 15263 and 14366 and 16180 and 12939 | Basal mNPPFC Uptake, flow cytometry ([1]; neutrophils): 10186 and 7521 and 8652 and 6287 and 6135 and 7209 | Stimulated mNPPFC Uptake, flow cytometry ([1]; non classical monocytes): 277 and 303 and 242 and 252 and 281 and 240 | Basal mNPPFC Uptake, flow cytometry ([1]; non classical monocytes): 138 and 192 and 152 and 172 and 167 | adverse side effects (liver serum markers, histology of liver and spleen) [2]: neither analysis of liver serum markers (GLDH, AST, ALP, ALT, bilirubin) nor histological examination of the liver and spleen revealed any evidence for adverse side effects
